The numbers were not newly measured in patent US12083092B2, “Antiviral 1,3-di-oxo-indene compounds” (Novartis AG, priority 2020, dated 2024), which cites them from elsewhere.

Data set [1] concerns 48 rhinovirus types and coxsackievirus A21. B3, enterovirus 70 and echovirus 11. Particulars: coxsackievirus A21, B3, enterovirus 70, echovirus 11; cited from earlier work.
For data set [2] the following is noted: in vivo, cited from earlier work.
The conditions of data set [3]: in vivo; cited from earlier work.
The conditions of data set [4]: in vivo; cited from earlier work. The source holds these as a separate data set.

For the compound `CCOC(=O)/C=C/[C@H](C[C@@H]1CCNC1=O)NC(=O)[C@@H](CC(=O)[C@@H](NC(=O)c1cc(C)on1)C(C)C)Cc1ccc(F)cc1` [AG 7088], the “effect in the cell culture” value in data set [1] is listed as “nanomolar concentration range”. For the compound `Cc1cc(CCCOc2c(C)cc(-c3noc(C(F)(F)F)n3)cc2C)on1` [Pleconaril], the oral bioavailability result in data set [2] (po) is on record as “very good oral bioavailability”. On to `Cc1cc(CCCCCOc2c(Cl)cc(C3=NCCO3)cc2Cl)on1` [WIN 54954], for which, in data set [3], the metabolization and excretion entry is “rapid metabolization and excretion”. Also, the side effects entry in data set [4] was “skin rash”. For the compound `CCC(=O)C(CCCCCCOc1ccc(OC)cc1Cl)C(=O)CC` [arildone], in data set [2], the bioavailability entry is listed as “low bioavailability”. As to `Cc1cc(CCCCCCCOc2ccc(C3=NCCO3)cc2)on1` [disoxaril], the bioavailability entry in data set [2] was “low bioavailability”. Besides, the metabolization and excretion result in data set [3] was “rapid metabolization and excretion”.
